Measurements reported in paper PMC3199943, “Screening the MayBridge Rule of 3 Fragment Library for Compounds That Interact with the Trypanosoma brucei myo-Inositol-3-Phosphate Synthase and/or Show Trypanocidal Activity” (Molecular Biology International, 2011).
Structures can show the parent of a compound that is named as a salt. Where two headings read alike, the source gives them in different places.

Legend:
HeLa cells = assay: cells; conditions: for viability at 500 µM: Homo sapiens, HeLa, 65 h; for HeLa Cells Alamar Blue: Supplementary Table 1
How it was run: (§1)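 Seed HeLa/A549 at 2 × 10^4 cells/well in DMEM/10% FCS/2 mM L-Gln; treat ~65 h; add Alamar Blue, 5 h more.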

TbINO1 = biological target: T1, TbINO1 (Trypanosoma brucei brucei, UniProt Q5QQ46); assay: biochemical; assay type: binding
T1 sequence (Q5QQ46 1-528): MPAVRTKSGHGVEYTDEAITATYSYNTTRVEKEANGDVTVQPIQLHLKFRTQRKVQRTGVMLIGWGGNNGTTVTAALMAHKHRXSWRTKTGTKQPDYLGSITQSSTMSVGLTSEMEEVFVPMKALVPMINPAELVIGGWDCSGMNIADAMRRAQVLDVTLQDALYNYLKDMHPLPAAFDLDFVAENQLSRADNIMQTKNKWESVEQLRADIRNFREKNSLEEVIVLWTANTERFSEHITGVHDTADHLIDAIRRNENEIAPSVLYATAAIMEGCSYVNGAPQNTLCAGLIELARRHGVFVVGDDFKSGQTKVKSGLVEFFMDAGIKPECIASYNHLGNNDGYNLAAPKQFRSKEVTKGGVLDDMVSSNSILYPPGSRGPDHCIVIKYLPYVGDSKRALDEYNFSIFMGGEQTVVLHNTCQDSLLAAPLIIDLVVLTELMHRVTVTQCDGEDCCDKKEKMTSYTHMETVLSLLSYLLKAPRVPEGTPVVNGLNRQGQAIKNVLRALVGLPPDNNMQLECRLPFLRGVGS

A549 cells = assay: Cytotoxicity against A549 cells, Alamar Blue; assay type: cell-based; conditions: Supplementary Table 1, compound 0.5 mM, percentage of controls (n=1); for viability at 500 µM: Homo sapiens, A549, 65 h
How it was run: as §1

[1] = read-out: HeLa Cells Alamar Blue
[2] = read-out: Tb Ino1 Tm Shift [˚C]
[3] = compound 0.5 mM, percentage of controls, mean ± SD (n=3) or SE (n=2)
[4] = Supplementary Table 1, compound 1mM, mean ± SD from Boltzman curve fitting
[5] = read-out: HeLa Cells Alamar Blue (% survival)
[6] = read-out: HeLa Cells Alamar Blue, Supplementary Table 1, compound 0.5 mM, percentage of controls, mean ± SD (n=3) or SE (n=2)

## N#Cc1ccc(OC2CCOCC2)cc1 [compound 645, 4‐(tetrahydropyran‐4‐yloxy)benzonitrile]
HeLa cells; [1]
  viability at 500 µM: 77.4 ± 15.8%
TbINO1; [2]
  ΔTm at 1000 µM: 0.18 ± 0.05 °C
A549 cells
  viability at 500 µM: 102%

## c1cnc2c(n1)CCCC2 [compound 111, 5,6,7,8‐tetrahydroquinoxaline]
HeLa cells; [1]
  viability at 500 µM: 95.6 ± 0.8%
TbINO1; [2]
  ΔTm at 1000 µM: 0.16 ± 0.06 °C
A549 cells
  viability at 500 µM: 96.1%

## Cl.c1ccc2c(c1)CCNC2 [compound 343, 1,2,3,4‐tetrahydroisoquinoline hydrochloride]
HeLa cells; [3]
  HeLa Cells Alamar Blue: 83.5 ± 7.8 percentage of controls
TbINO1; [4]
  Tb Ino1 Tm Shift [˚C]: 0.37 ± 0.06 °C
A549 cells
  A549 Cells Alamar Blue: 86.3 percentage of controls

## Cc1nnc(N)s1 [compound 39, 5‐methyl‐1,3,4‐thiadiazol‐2‐amine]
HeLa cells; [1]
  viability at 500 µM: 105 ± 14.5%
TbINO1; [2]
  ΔTm at 1000 µM: 0.31 ± 0.08 °C
A549 cells
  viability at 500 µM: 72.3%

## COC(=O)c1cccc2cc[nH]c12 [compound 396, methyl 1H‐indole‐7‐carboxylate]
HeLa cells; [1]
  viability at 500 µM: 36.5 ± 11.9%
TbINO1; [2]
  ΔTm at 1000 µM: 0.12 ± 0.11 °C
A549 cells
  viability at 500 µM: 164%

## COc1ccc(C#N)cn1 [compound 108, 6‐methoxynicotinonitrile]
HeLa cells; [1]
  viability at 500 µM: 95 ± 10.2%
TbINO1; [2]
  ΔTm at 1000 µM: 0.38 ± 0.07 °C
A549 cells
  viability at 500 µM: 125%

## Oc1ccc2c(c1)OCO2 [compound 124, 1,3-benzodioxol-5-ol]
HeLa cells; [1]
  viability at 500 µM: 39.7 ± 12.5%
HeLa cells; [5]
  viability at 500 µM: 39.7 ± 12.5%
TbINO1; compound 1 mM, mean ± SD (n = 3), read-out: TbIno1 Tm shift [°C]
  ΔTm at 1000 µM: 2.1 ± 0.04 °C
A549 cells
  viability at 500 µM: 53.6%

## O=C(O)c1ccc2cc[nH]c2c1 [compound 271, 1H‐indole‐6‐carboxylic acid]
HeLa cells; [6]
  viability at 500 µM: 111 ± 16.2%
TbINO1; Supplementary Table 1, compound 1mM, mean ± SD from Boltzman curve fitting, read-out: Tb Ino1 Tm Shift [˚C]
  ΔTm at 1000 µM: 0.06 ± 0.08 °C
A549 cells
  viability at 500 µM: 75.6%

## O=C1CC(c2ccccc2)=NO1 [compound 272, 3-phenyl-4,5-dihydroisoxazol-5-one]
HeLa cells; [1]
  viability at 500 µM: 89.4 ± 3.9%
HeLa cells; [5]
  viability at 500 µM: 89.4 ± 3.9%
TbINO1; read-out: TbIno1 Tm shift [°C]
  ΔTm at 1000 µM: 3.56 ± 0.06 °C
A549 cells
  viability at 500 µM: 61.5%

## Cc1cc(N)n(C)n1 [compound 26, 1,3‐dimethyl‐1H‐pyrazol‐5‐amine]
HeLa cells; [1]
  viability at 500 µM: 85.5 ± 9.4%
TbINO1; [2]
  ΔTm at 1000 µM: 0.54 ± 0.07 °C
A549 cells
  viability at 500 µM: 70.1%

## CC(C)(C)OC(=O)Nc1cccs1 [compound 620, tert-butyl N-(2-thienyl)carbamate]
HeLa cells; [1]
  viability at 500 µM: 71.3 ± 13.6%
HeLa cells; [5]
  viability at 500 µM: 71.3 ± 13.6%
TbINO1; read-out: TbIno1 Tm shift [°C]
  ΔTm at 1000 µM: 2.08 ± 0.1 °C
A549 cells
  viability at 500 µM: 109%

## Cc1cccc2c1NCCC2 [compound 166, 8‐methyl‐1,2,3,4‐tetrahydroquinoline]
HeLa cells; [1]
  viability at 500 µM: 95.5 ± 1.6%
TbINO1; [2]
  ΔTm at 1000 µM: 0.06 ± 0.07 °C
A549 cells
  viability at 500 µM: 76%

## N#Cc1ccccc1Oc1ccccc1 [compound 591, 2‐phenoxybenzonitrile]
HeLa cells; [1]
  viability at 500 µM: 93 ± 2.5%
TbINO1; [2]
  ΔTm at 1000 µM: 0.24 ± 0.06 °C
A549 cells
  viability at 500 µM: 58.3%

## CNCc1cc(-c2ccccc2)nn1C [compound 631, N‐methyl‐N‐[(1‐methyl‐3‐phenyl‐1H‐pyrazol‐5‐yl)methyl]amine]
HeLa cells; [3]
  HeLa Cells Alamar Blue: 66.2 ± 16.3 percentage of controls
TbINO1; [4]
  Tb Ino1 Tm Shift [˚C]: 0.5 ± 0.08 °C
A549 cells
  A549 Cells Alamar Blue: 100.2 percentage of controls

## OCc1cnccn1 [compound 23, 2‐pyrazinylmethanol]
HeLa cells; [1]
  viability at 500 µM: 77.5 ± 12.3%
TbINO1; [2]
  ΔTm at 1000 µM: 0.27 ± 0.07 °C
A549 cells
  viability at 500 µM: 75.9%

## OCc1ccnc(N2CCCCC2)c1 [compound 568, (2‐piperidinopyrid‐4‐yl)methanol]
HeLa cells; [1]
  viability at 500 µM: 94.5 ± 18.7%
TbINO1; [2]
  ΔTm at 1000 µM: 0.03 ± 0.07 °C
A549 cells
  viability at 500 µM: 103%

## O=C(O)c1ccco1 [compound 27, 2‐furoic acid]
HeLa cells; [1]
  viability at 500 µM: 95.7 ± 9.4%
TbINO1; [2]
  ΔTm at 1000 µM: 0.17 ± 0.06 °C
A549 cells
  viability at 500 µM: 107%

## NCc1nc2ccccc2s1 [compound 626, 1,3-benzothiazol-2-ylmethylamine hydrochloride]
HeLa cells; read-out: HeLa Cells Alamar Blue (% survival), compound 0.5 mM, percentage of controls
  viability at 500 µM: 95.1 ± 15.5%
HeLa cells; [6]
  viability at 500 µM: 95.1 ± 15.5%
TbINO1; read-out: TbIno1 Tm shift [°C]
  ΔTm at 1000 µM: 2.03 ± 0.08 °C
A549 cells
  viability at 500 µM: 85.7%

## CN(C)C1(CN)CCSC1 (stereo not shown) [compound 268, 3‐(aminomethyl)‐N,N‐dimethyltetrahydro‐3‐thiophenamine]
HeLa cells; [3]
  HeLa Cells Alamar Blue: 88.4 ± 17.9 percentage of controls
TbINO1; [4]
  Tb Ino1 Tm Shift [˚C]: 0.32 ± 0.07 °C
A549 cells
  A549 Cells Alamar Blue: 87.3 percentage of controls

## CC(=O)Oc1ccc(C)c2c1CCC2 [compound 541, 7‐methyl‐2,3‐dihydro‐1H‐inden‐4‐yl acetate]
HeLa cells; [3]
  HeLa Cells Alamar Blue: 79.8 ± 6.6 percentage of controls
TbINO1; [4]
  Tb Ino1 Tm Shift [˚C]: 0.01 ± 0.07 °C
A549 cells
  A549 Cells Alamar Blue: 93.1 percentage of controls
